Experimental findings from patent US20260060989A1, “Charged Ion Channel Blockers And Methods For Use” (Nocion Therapeutics, Inc., priority 2024, published 2026) are described below.

As a reminder, the inhibition is the change of the read-out against control, counted positive when it falls.

For test [1], the target named is T1, NaV1.7 (Homo sapiens, UniProt Q15858).
T1 construct: expressed in transfected cells; host or cells: Tetracycline-inducible cell line kept under hygromycin and blasticidin selection
T1 sequence (Q15858 whole entry): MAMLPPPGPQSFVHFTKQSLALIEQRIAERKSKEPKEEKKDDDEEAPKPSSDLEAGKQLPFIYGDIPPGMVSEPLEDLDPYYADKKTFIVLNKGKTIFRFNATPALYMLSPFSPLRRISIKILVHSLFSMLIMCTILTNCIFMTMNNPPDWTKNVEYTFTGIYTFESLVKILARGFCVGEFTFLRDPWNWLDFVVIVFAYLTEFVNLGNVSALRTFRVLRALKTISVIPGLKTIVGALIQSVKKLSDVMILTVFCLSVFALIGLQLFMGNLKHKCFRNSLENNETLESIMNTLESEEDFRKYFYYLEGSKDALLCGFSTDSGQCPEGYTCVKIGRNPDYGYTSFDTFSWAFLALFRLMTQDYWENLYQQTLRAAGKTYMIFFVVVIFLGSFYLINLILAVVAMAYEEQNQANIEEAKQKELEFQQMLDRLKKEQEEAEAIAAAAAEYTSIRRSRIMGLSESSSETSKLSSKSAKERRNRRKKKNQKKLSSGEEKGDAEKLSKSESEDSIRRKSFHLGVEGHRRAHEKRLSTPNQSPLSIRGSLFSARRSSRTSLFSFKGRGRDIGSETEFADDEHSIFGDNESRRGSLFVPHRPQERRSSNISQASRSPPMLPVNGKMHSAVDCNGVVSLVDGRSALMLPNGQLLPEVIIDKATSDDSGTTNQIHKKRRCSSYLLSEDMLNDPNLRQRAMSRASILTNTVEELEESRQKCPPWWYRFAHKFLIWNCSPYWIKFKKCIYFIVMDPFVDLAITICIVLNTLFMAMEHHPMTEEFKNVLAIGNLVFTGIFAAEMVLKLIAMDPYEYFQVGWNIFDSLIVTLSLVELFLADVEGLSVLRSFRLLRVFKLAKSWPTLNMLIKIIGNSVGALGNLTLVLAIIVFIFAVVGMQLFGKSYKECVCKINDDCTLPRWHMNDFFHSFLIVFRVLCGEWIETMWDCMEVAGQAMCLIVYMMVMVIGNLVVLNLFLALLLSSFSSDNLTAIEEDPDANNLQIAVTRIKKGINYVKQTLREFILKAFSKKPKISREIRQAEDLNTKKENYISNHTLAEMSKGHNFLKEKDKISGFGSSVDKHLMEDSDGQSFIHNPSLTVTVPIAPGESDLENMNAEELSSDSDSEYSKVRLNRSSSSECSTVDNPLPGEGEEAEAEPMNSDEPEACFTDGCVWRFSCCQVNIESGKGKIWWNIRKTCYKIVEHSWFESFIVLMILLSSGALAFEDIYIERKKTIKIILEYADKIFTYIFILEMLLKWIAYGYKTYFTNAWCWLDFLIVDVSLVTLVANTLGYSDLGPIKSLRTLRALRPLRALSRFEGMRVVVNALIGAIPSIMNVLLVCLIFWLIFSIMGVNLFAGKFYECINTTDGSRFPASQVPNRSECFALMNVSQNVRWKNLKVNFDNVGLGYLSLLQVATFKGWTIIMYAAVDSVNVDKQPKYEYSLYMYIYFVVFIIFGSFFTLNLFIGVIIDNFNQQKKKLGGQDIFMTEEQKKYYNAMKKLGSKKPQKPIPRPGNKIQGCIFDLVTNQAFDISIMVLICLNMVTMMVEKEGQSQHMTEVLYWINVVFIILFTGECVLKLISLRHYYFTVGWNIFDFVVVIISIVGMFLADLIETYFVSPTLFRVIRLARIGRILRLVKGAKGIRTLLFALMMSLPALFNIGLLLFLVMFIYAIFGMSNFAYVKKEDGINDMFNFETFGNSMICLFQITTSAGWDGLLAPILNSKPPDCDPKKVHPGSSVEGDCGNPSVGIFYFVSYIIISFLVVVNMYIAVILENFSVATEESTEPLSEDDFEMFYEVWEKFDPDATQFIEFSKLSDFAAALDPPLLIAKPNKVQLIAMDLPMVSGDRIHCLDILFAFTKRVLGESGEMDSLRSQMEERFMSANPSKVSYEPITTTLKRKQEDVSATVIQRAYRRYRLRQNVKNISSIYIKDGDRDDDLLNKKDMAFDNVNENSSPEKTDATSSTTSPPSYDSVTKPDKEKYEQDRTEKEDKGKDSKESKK
Description: Whole cell patch clamp, internal block of NaV1.7 current (compound in intracellular solution). The class given is cell-based. The note with it: test concentration 0.32 μM; text says intracellular inhibition (compound in internal solution), 5 Hz stimulation; read-out: NaV1.7 Extracellular Inhibition. The procedure:
(§1) NaV1.7 was expressed upon induction with tetracycline. Cells were cultured in DMEM containing 10% dialyzed Fetal Bovine Serum (VWR, Radnor, PA), 1% Glutamax (VWR, Radnor, PA), 1% Penicillin-Streptomycin (VWR, Radnor, PA), 100 mg/L Hygromycin (Thermo Fisher Scientific, Waltham, MA and 5 mg/L Blasticidin (Alfa Aesar, Haverhill, MA). Cells were grown and maintained at 37° C. in a humidified environment containing 10% CO2 in air. Cells were detached from the culture flask for passage and harvested using 0.05% Trypsin-EDTA (Thermo Fisher Scientific, Waltham, MA). To induce NaV1.7, cells were induced with tetracycline (0.1-1 μg/mL, IBI Scientific, Peosta, IA) the day before recording and plated onto 24-well plates. Cells were washed with DPBS (VWR, Radnor, PA), trypsinized and then triturated five times in 10 mL of growth media to break apart cell aggregates. […]
(§2) Once the recording was started, the voltage protocol was run at 30 second intervals for 5 minutes to get a stable baseline. […] Currents were recorded using PatchMaster software with Heka EPC10 (HEKA Electronics, Lambrecht, Germany). […]
(§3) The data was plotted using the Patchmaster software (HEKA Electronics, Lambrecht, Germany) and analyzed by plotting the minimum current during the voltage step to −20 mV (peak inward current) as a function of time. […]

Test [2] deals with T1, NaV1.7. The test can be described thus: Whole cell patch clamp, external block of NaV1.7 current (compound in external solution). The note with it: test concentration 10 μM; compound applied in external solution for 5 minutes, 5 Hz stimulation; read-out: NaV1.7 Extracellular Inhibition. The class given is cell-based. The procedure:
as §1, §2, §3

In the case of `Cc1cccc(C)c1NC(=O)C[N+]1(CCOC(=O)c2ccccc2Cl)CCCCCC1` [Compound 1, 1-(2-((2-chlorobenzoyl)oxy)ethyl)-1-(2-((2,6-dimethylphenyl)amino)-2-oxoethyl)azepan-1-ium bromide], on NaV1.7 [1], the inhibition at 0.32 µM is greater than 70%. On NaV1.7 [2], the inhibition at 10 µM was in the range of 40 to 70%.
